Test results taken from PMC5597618, “Identification and characterization of the novel reversible and selective cathepsin X inhibitors” (Scientific Reports, 2017).

Legend:
cathepsin X = cathepsin X (Homo sapiens, UniProt Q9UBR2); experiment: Labeling of cathepsin X with activity-based probe DCG-04 in PC-3 cell lysate; type: biochemical; design: endogenous in cells; host or cells: PC-3; details: 10 µM inhibitor
Protocol: Evaluation of cellular uptake and retention of compound 22: sample preparation and LC- […]
PC-3 cells were treated for 1 hour with compound 22 (50 µM). Cells were washed twice with cold PBS, trypsinized, washed once more and centrifuged. A pellet of cells was resuspended in 200 µL of PBS (or in 200 µL of PBS containing 5µM inhibitor for standard addition) and transferred to 1.5 mL Eppendorf vials prefilled with 0.1 mm and 0.5 mm glass beads (NextAdvance, USA). All cell samples were then homogenized with a BulletBlender (NextAdvance, USA) for 5 min at speed setting »6«. […]
(2.30;50), (2.50;50), (2.6;5). […] ESI Jetstream parameters were set as follows: drying gas temperature 275 °C, drying gas flow 5 L/min, nebulizer 45 psi, sheath gas temperature 320 °C, sheath gas flow 11 L/min, capillary entrance voltage 4000 V and nozzle voltage 1000 V. Quadrupoles Q1 and Q3 were set at the widest resolution (2.5 amu) and multiple reaction monitoring (MRM) mass transitions used for the quantification of recorded traces are presented in Supplementary Table S4. […]
PC-3 cell lysate was diluted in cathepsin X assay buffer (1 mg/ml protein concentration). […] After blocking with 5% skimmed milk powder in TBS with 0.05% Tween 20, membrane was incubated with streptavidin-HRP (1:5000; Jackson ImmunoResearch) for 1 hour and proteins were detected with […]

cathepsin B = target: T1, cathepsin B (Homo sapiens, UniProt P07858); experiment: Labeling of cathepsin B with activity-based probe DCG-04 in PC-3 cell lysate; type: biochemical; details: 10 µM inhibitor
T1 construct: endogenous in cells; host or cells: PC-3

PC-3 cells = experiment: Cytotoxicity assay (MTS) in PC-3 cells; type: cell-based, human; details: up to 10 μM, 24 and 48 hours
Protocol: Human prostate cancer cell line PC-3 cells (obtained from ATCC, Manassas, USA; ATCC Number: CRL-1435) were cultured in F-12 (Gibco) and Advanced DMEM (Gibco) (1:1) with 10% FBS, 1% penicillin/streptomycin and 1% L-glutamine. Rat pheochromocytoma PC-12 cells (obtained from ATCC, Manassas, USA; ATCC Number: CRL-1721) were cultured in Advanced DMEM (Gibco) with 5% FBS, 10% heat-inactivated horse serum, 1% penicillin/streptomycin and 1% L-glutamine.
6.5 × 10^4 PC-3 cells/ml were seeded in a 96-well plate. PC-12 cells were seeded on poly-L-lysine (Sigma) coated plates in serum-free medium at a concentration of 4 × 10^4/well. Cells were treated with various concentrations of compounds (1, 2.5, 5 and 10 μM) for 24 or 48 hours. Cytotoxicity was determined with MTS reagent (CellTiter 96 Aqueous One Solution Cell Proliferation Assay, Promega) and A492 measured after 1 hour.

Chain of cathepsin X (Q9UBR2 62-303): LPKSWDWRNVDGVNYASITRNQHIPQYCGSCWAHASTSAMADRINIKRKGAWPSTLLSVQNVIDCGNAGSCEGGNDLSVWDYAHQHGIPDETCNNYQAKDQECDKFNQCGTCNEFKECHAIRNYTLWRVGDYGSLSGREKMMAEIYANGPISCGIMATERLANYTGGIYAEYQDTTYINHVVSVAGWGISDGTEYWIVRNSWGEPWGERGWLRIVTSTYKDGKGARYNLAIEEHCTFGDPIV

delay of cathepsin X labeling by DCG-04 (cathepsin X): approximately 20 minutes
inhibition of cathepsin B labeling by DCG-04 (cathepsin B): weak inhibition
Structure (SMILES): CC(C)n1cnnc1SCC(=O)c1ccc2c(c1)OCCO2 [Compound 22, 1-(2,3-Dihydrobenzo[b][1,4]dioxin-6-yl)-2-((4-isopropyl-4H-1,2,4-triazol-3-yl)thio)ethan-1-one]
cytotoxicity to PC-3 cells (PC-3 cells): not cytotoxic
